The source of these data is ChEMBL document CHEMBL5154711, “Discovery of Novel Sphingosine-1-Phosphate-1 Receptor Agonists for the Treatment of Multiple Sclerosis” (J Med Chem, 2022).

Data set [1] is described as follows: in vitro. Particulars: human, microsomes.
Data set [2] is described as follows: in vitro. The following applies: mouse, microsomes.
A short description of data set [3]: in vivo. The following applies: rat, iv, 1 mg/kg.
A short description of data set [4]: in vivo. Particulars: rat, po, 10 mg/kg.
Data set [5] in a line: in vivo. The following applies: rat, iv, 1 mg/kg. This is another data set of the same source.
The nature of data set [6]: in vivo. Particulars: rat, iv, 10 mg/kg.
The nature of data set [7]: in vivo. Particulars: rat, iv, 1 mg/kg. This is another data set of the same source.
Data set [8] can be described thus: in vivo. Particulars: rat, iv, 1 mg/kg. This is another data set of the same source.
Data set [9] in a line: in vivo. Particulars: rat, po, 10 mg/kg. The source holds these as a separate data set.
Data set [10] can be described thus: in vivo. Particulars: rat, po, 10 mg/kg. The source holds these as a separate data set.
Data set [11] can be described thus: in vivo. Particulars: rat, po, 10 mg/kg. This is another data set of the same source.
Data set [12] can be described thus: in vitro. Particulars: rat, liver microsomes.

In the case of `CC(C)Oc1ccc(-n2cc(-c3ccc(CN4CC(C(=O)O)C4)cc3)nn2)cc1Cl`, the fraction remaining at 0.5 h, 1 µM in “in vitro [1]” is 98.5%; in the data set “in vitro [2]” it was > 99%.

Consider `CC(C)Oc1ccc(C2CC(c3ccc(CN4CCC(C(=O)O)CC4)cc3)=NO2)cc1Cl` (stereo not given), for which the share remaining at 0.5 h, 1 µM stood at 73.5% in the data set “in vitro [1]” and 84.5% in “in vitro [2]”.

For `CC(C)(C)c1ccc(C2CC(c3ccc(CN4CC(C(=O)[O-])C4)cc3)=NO2)cc1.[Na+]` (stereo not given), the half-life in “in vivo [3]” was 2.4 h; in the data set “in vivo [4]”, 3.1 h. Besides, the results for the AUC(0-inf) in the data set “in vivo [5]” and in the data set “in vivo [6]” were 1160 ng·h/mL and 5190 ng·h/mL, respectively. For the same molecule, the clearance in “in vivo [7]” was found to be 13.1 mL/min/kg. For the same molecule, the Vd in “in vivo [8]” is 2.6 L/kg. In the data set “in vivo [9]”, this molecule had a Cmax of 1070 ng/mL. The time of peak concentration (Tmax) in the data set “in vivo [10]” was found to be 2.3 h. This molecule also had a bioavailability in the data set “in vivo [11]” of 44.9%. Moreover, the values for the amount remaining at 0.5 h, 1 µM in the data set “in vitro [1]”, in “in vitro [2]” and in “in vitro [12]” were 93.8%, 96.7% and 95.1%, respectively.

As for `COC(=O)C1CN(Cc2ccc(-c3cn(-c4ccc(OC(C)C)c(Cl)c4)nn3)cc2)C1`, the values for the fraction remaining at 0.5 h, 1 µM in “in vitro [1]” and in “in vitro [2]” were 24.1% and 28.8%, respectively.

On to `COC(=O)C1CN(Cc2ccc(-n3cc(-c4ccc(OC(C)C)c(Cl)c4)nn3)cc2)C1`, for which the fraction remaining at 0.5 h, 1 µM stood at 23.2% in “in vitro [1]” and 19% in the data set “in vitro [2]”.
